In US9023814B2, “Glycomimetic compounds as anti-infectious against pathogens lectins” (priority 2010, dated 2015):
Where two headings read alike, the source gives them in different places.

Assays:
[1] = molecular target: T1, LecA (Pseudomonas aeruginosa, UniProt Q05097); experiment: biochemical; format: binding
Experimental: Isothermal Titration Microcalorimetry (ITC).
The method allows for a direct measurement of the affinity between the glycomimetics and the LecA lectin. The dissociation constant is measured.
More particularly, recombinant lyophilized LecA was dissolved in buffer (0.1 M TrisHCl, 6 μM CaCl2, pH 7.5) and degassed (see Supp. Info. for concentration details). Protein concentration was checked by measurement of optical density using a theoretical molar extinction coefficient of 28000. Carbohydrate ligands were dissolved directly into the same buffer, degassed, and placed in the injection syringe. ITC was performed with a VP-ITC MicroCalorimeter from MicroCal Incorporated. PA-IL was placed into the 1.4478-mL sample cell, at 25° C. Titration was performed with 10-μL injections of carbohydrate ligands every 300 s. Data were fitted with MicroCal Origin 7 software, according to standard procedures. Fitted data yielded the stoichiometry (n), the association constant (Ka) and the enthalpy of binding (ΔH).
Other thermodynamic parameters (i.e. changes in free energy, ΔG, and entropy, ΔS) were calculated from the equation: ΔG=ΔH TΔS=−RT Inka where T is the absolute temperature and R=8.314 J·mol^−1·K^−1. Two or three independent titrations were performed for each ligand tested.

[2] = molecular target: T1, LecA; experiment: Enzyme-Linked Lectin Assay (ELLA), biotinylated LecA binding to polymeric galactose
Experimental: Enzyme-Linked Lectin Assay (ELLA) Experiments 96-well plates are covered with polymer presenting galactose (which is the monosaccharide that is bound by LecA). The lectin labelled with biotin is added in presence of competing glycomimetics. IC50 can be measured.
More particularly, ELLA experiments were conducted using 96-well microtitre plates (Nunc Maxisorb) coated with polymeric β-D-galactose (5 μg/mL; Lectinity Holding, Inc., Moscow) diluted in carbonate buffer, pH 9.6 (100 μL) for 1 h at 37° C. After blocking at 37° C. for 1 h with 100 μL per well of 3% (w/v) BSA in PBS, plates were incubated at 37° C. for 1 h with 100 μL of biotinylated LecA at 0.1 μg/mL in the presence of serial dilutions of inhibitors. After washing with T-PBS (PBS containing 0.05% Tween), 100 μL of streptavidinperoxidase conjugate (dilution 1:10000; Boehringer-Mannheim) was added and left for 1 h at 37° C. The color was developed using 100 μL per well of 0.05 M phosphate/citrate buffer containing O-phenylenediamine dihydrochloride (0.4 mg/mL) and urea hydrogen peroxide (0.4 mg/mL) (Sigma-Aldrich). The reaction was stopped by the addition of 50 μL of 30% H2SO4. Absorbance was read at 490 nm using a microtitre plate reader (Bio-Rad; model 680).

[3] = molecular target: T1, LecA; experiment: Inhibition of Hemagglutination (HIA), LecA-induced agglutination of rabbit erythrocytes; format: cell-based; conditions: LecA 6 μg/mL, 25° C.
Experimental: Inhibition of Hemagglutination (IHA) (or Hemagglutination Inhibition Assays (HIA)).
The LecA lectin agglutinates red blood cells since they are covered by glycoconjugates. The glycomimetics inhibit this agglutination.
For each compound the minimum concentration able to perform inhibition has been evaluated. The method is not very quantitative but mimics natural system.
(§1) More particularly, hemagglutination inhibition assays were performed in U-shaped 96-well microtitre plates. Rabbit erythrocytes were bought from Biomerieux and used without further washing. The erythrocytes were diluted to a 4% solution in NaCl (150 mM). Lectin solutions of 2 mg/mL were prepared in Tris/HCl 20 mM, NaCl 100 mM and CaCl2 100 μM. The hemagglutination unit (HU) was first obtained by the addition of 25 μL of the 4% erythrocyte solution to 25 μL aliquots of sequential (two-fold) lectin dilutions. The mixture was incubated at 25° C. for 60 minutes. The HU was measured as the minimum lectin concentration required to […] hemagglutination. For the following lectin-inhibition assays, lectin concentrations of four times that of the hemagglutination unit were used, i.e. a concentration of 6 μg/mL for LecA. Subsequent assays were then carried out by the addition of 12.5 μL lectin solution (at the required concentration) to 25 μL of sequential dilutions of glycoclusters, monomer molecules and controls. These solutions were then incubated at 25° C. for 2 h then 12.5 μL of 4% erythrocyte solution was added followed by an additional incubation at 25° C. for 30 minutes. The minimum inhibitory concentration for each molecule was determined by simple eye detection.
Compounds 5, 10, 14, 19, 21, 23, 25, 27, 29 and 31 were evaluated towards LecA according to Method 1.

[4] = molecular target: T1, LecA; experiment: biochemical; format: binding; remark: listed apart in the source
Experimental: Surface Plasmon Resonance (SPR).
Equivalent method, but performed in miniaturized channel on a galactose-containing chips in a more sophisticated apparatus (Biacore 3000) that allows for a precise determination of the IC50.
More particularly, SPR inhibition experiments were performed on a Biacore 3000 instrument at 25° C. Measurements were carried out on 2 channels with 2 immobilised sugars: α-L-fucose (channel 1), α-D-galactose (channel 2). Immobilization of sugars was performed at 25° C. using running buffer (HBS) at 5 μL/min. Immobilization on each channel (CM5 Chip) was performed independently as follows. First, channel was activated by injecting a fresh mixture of EDC/NHS (35 μL, 420 s). Then, a solution of strepatavidin (100 μg/mL in Na acetate pH 5 buffer) was injected (50 μL, 600 s). Remaining reactive species were quenched by injecting ethanolamine (1M, 35 μL, 420 s). Finally a solution of the desired biotinylated-polyacrylamide-sugar (Lectinity, 200 μg/mL) was coated onto the surface (50 μL, 600 s) through streptavidin-biotin interaction. This procedure led to 804 RU (fucoside) and 796 RU (galactoside) of immobilized sugars on channel 1 and 2 respectively. Inhibition experiments were performed with the galactosylated channel 2 and plots represent subtracted data (channel 2-channel 1).
LecA was injected using running buffer consisting of HEPES 10 mM, NaCl 150 mM, CaCl2 10 mM, Tween P20 0.005%, pH 7.4. Inhibition studies consisted in the injection (150 μL, 10 μL/min, dissociation: 120 s) of incubated (>1 h, r.t.) mixtures of LecA (5 μM) and various concentrations of inhibitor (2-fold cascade dilutions). For each inhibition assay, LecA (5 μM) without inhibitor was injected to observe the full adhesion of the lectin onto the sugar-coated surface (0% inhibition). The CM5 chip was fully regenerated by successive injections of D-Galactose (2×30 μL, 100 mM in running buffer).
Binding was measured as RU over time after blank subtraction, and data were then evaluated using the BIAevaluation Software, version 4.1. For IC50 evaluation, the response (Req-fitted) was considered as the amount of lectin bound to the sugar surface at equilibrium in the presence of a defined concentration of inhibitor. Inhibition curves were obtained by plotting the percentage of inhibition against the inhibitor concentration (on a logarithmic scale) by using Origin 7.0 software (OriginLab Corp.) and IC50 values were extracted from sigmoidal fit of the inhibition curve.

[5] = test system: Rabbit erythrocytes; experiment: Hemolysis of red cells observed in the hemagglutination inhibition assay; format: cell-based; conditions: at the concentration used in the hemagglutination inhibition assay
Experimental: as §1
The values given in table 1 are inhibiting concentrations of lectin-induced rec cells agglutination. Monocovalent glycoconjugate compound 14 and tetravalent glyconjugate compounds 21 and 23 are the most efficient.

[6] = read-out: IC50 for the inhibition of labelled-LecA binding to a galactosylated polymer (ELLA), biotinylated LecA 0.1 μg/mL, multi-well plate
[7] = read-out: Dissociation constant for the interaction in solution with LecA (ITC), 25° C., 0.1 M TrisHCl, pH 7.5
[8] = read-out: IC50 for the inhibition of label-free LecA binding to a galactosylated chip surface (SPR), LecA 5 μM, 25° C.

T1 sequence (Q05097 whole entry): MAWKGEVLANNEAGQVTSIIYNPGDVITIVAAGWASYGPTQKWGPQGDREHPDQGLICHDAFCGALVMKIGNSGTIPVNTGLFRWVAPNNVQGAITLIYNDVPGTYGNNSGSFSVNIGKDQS

SMILES | inhibiting concentrations of lectin-induced red cells agglutination (minimum inhibitory concentration) [3] | IC50 [2, 6] [µM] | Hemolysis of red cells [5] | IC50 (SPR), in words [4] | IC50 [4, 8] [µM] | also measured
O=C(Cn1cc(CO)nn1)NCCOCCO[C@@H]1O[C@H](CO)[C@H](O)[C@H](O)[C@H]1O [Comp. 5, 1-[(1,2,3-Triazol-4-hydroxymethyl-1-yl)-acetamido]-3-oxapent-5-yl β-D-galactopyranoside] | 10 000 μM |  |  |  |  | Kd [1]: 107 µM; IC50 [2]: 250 µM; IC50 [4]: 58.3 µM
O=C(CNC(=O)Cn1cc(CO)nn1)NCCO[C@@H]1O[C@H](CO)[C@H](O)[C@H](O)[C@H]1O [Comp. 10, 2-N-[(1,2,3-Triazol-4-hydroxymethyl-1-yl)-acetamido]glycinamido-ethyl β-D-galactopyranoside] | 2 500 μM |  |  |  |  | Kd [1]: 180 µM; IC50 [2]: 300 µM; IC50 [4]: 60 µM
CC(C)(C)c1cc2c(OCc3cn(CC(=O)NCC(=O)NCCOC4OC(CO)C(O)C(O)C4O)nn3)c(c1)Cc1cc(C(C)(C)C)cc(c1OCc1cn(CC(=O)NCC(=O)NCCOC3OC(CO)C(O)C(O)C3O)nn1)Cc1cc(C(C)(C)C)cc(c1OCc1cn(CC(=O)NCC(=O)NCCOC3OC(CO)C(O)C(O)C3O)nn1)Cc1cc(C(C)(C)C)cc(c1OCc1cn(CC(=O)NCC(=O)NCCOC3OC(CO)C(O)C(O)C3O)nn1)C2 (stereo not drawn) [Comp. 21] | 250 µM | 21 |  |  |  | 
CC(C)(C)c1cc2c(OCc3cn(CC(=O)Nc4ccc(OC5OC(CO)C(O)C(O)C5O)cc4)nn3)c(c1)Cc1cc(C(C)(C)C)cc(c1OCc1cn(CC(=O)Nc3ccc(OC4OC(CO)C(O)C(O)C4O)cc3)nn1)Cc1cc(C(C)(C)C)cc(c1OCc1cn(CC(=O)Nc3ccc(OC4OC(CO)C(O)C(O)C4O)cc3)nn1)Cc1cc(C(C)(C)C)cc(c1OCc1cn(CC(=O)Nc3ccc(OC4OC(CO)C(O)C(O)C4O)cc3)nn1)C2 (stereo not drawn) [Comp. 29] |  | 0.9 | Hemolysis of red cells is observed |  |  | IC50 (ELLA), in words [2]: sub micromolar range
CC(C)(C)c1cc2c(OCc3cn(CC(=O)NCCOCCOC4OC(CO)C(O)C(O)C4O)nn3)c(c1)Cc1cc(C(C)(C)C)cc(c1OCc1cn(CC(=O)NCCOCCOC3OC(CO)C(O)C(O)C3O)nn1)Cc1cc(C(C)(C)C)cc(c1OCc1cn(CC(=O)NCCOCCOC3OC(CO)C(O)C(O)C3O)nn1)Cc1cc(C(C)(C)C)cc(c1OCc1cn(CC(=O)NCCOCCOC3OC(CO)C(O)C(O)C3O)nn1)C2 (stereo not drawn) [Comp. 19] | 500 µM | 7 |  | micromolar range | 1 | Kd [1, 7]: 0.094 µM; Kd ([1]; read-out: dissociation constant (ITC), 25° C.): 0.094 µM
CC(C)(C)c1cc2c(OCc3cn(CC(=O)NCC(=O)NCCOC4OC(CO)C(O)C(O)C4O)nn3)c(c1)Cc1cc(C(C)(C)C)cc(c1OCc1cn(CC(=O)NCC(=O)NCCOC3OC(CO)C(O)C(O)C3O)nn1)Cc1cc(C(C)(C)C)cc(c1OCc1cn(CC(=O)NCC(=O)NCCOC3OC(CO)C(O)C(O)C3O)nn1)Cc1cc(C(C)(C)C)cc(c1OCc1cn(CC(=O)NCC(=O)NCCOC3OC(CO)C(O)C(O)C3O)nn1)C2 (stereo not drawn) [Comp. 25] | 625 µM | 14 |  | micromolar range | 1.2 | 
CC(C)(C)c1cc2c(OCc3cn(CC(=O)NCC(=O)NCCOC4OC(CO)C(O)C(O)C4O)nn3)c(c1)Cc1cc(C(C)(C)C)cc(c1OCc1cn(CC(=O)NCC(=O)NCCOC3OC(CO)C(O)C(O)C3O)nn1)Cc1cc(C(C)(C)C)cc(c1OCc1cn(CC(=O)NCC(=O)NCCOC3OC(CO)C(O)C(O)C3O)nn1)Cc1cc(C(C)(C)C)cc(c1OCc1cn(CC(=O)NCC(=O)NCCOC3OC(CO)C(O)C(O)C3O)nn1)C2 (stereo not drawn) [Comp. 23] | 250 µM | 7 |  | micromolar range | 1.1 | Kd [1, 7]: 239 µM
CC(C)(C)c1cc2c(OCc3cn(CC(=O)Nc4ccc(OC5OC(CO)C(O)C(O)C5O)cc4)nn3)c(c1)Cc1cc(C(C)(C)C)cc(c1OCc1cn(CC(=O)Nc3ccc(OC4OC(CO)C(O)C(O)C4O)cc3)nn1)Cc1cc(C(C)(C)C)cc(c1OCc1cn(CC(=O)Nc3ccc(OC4OC(CO)C(O)C(O)C4O)cc3)nn1)Cc1cc(C(C)(C)C)cc(c1OCc1cn(CC(=O)Nc3ccc(OC4OC(CO)C(O)C(O)C4O)cc3)nn1)C2 (stereo not drawn) [Comp. 31] |  | 5 | Hemolysis of red cells is observed |  |  | 
CC(C)(C)c1cc2c(OCc3cn(CC(=O)Nc4ccc(OC5OC(CO)C(O)C(O)C5O)cc4)nn3)c(c1)Cc1cc(C(C)(C)C)cc(c1OCc1cn(CC(=O)Nc3ccc(OC4OC(CO)C(O)C(O)C4O)cc3)nn1)Cc1cc(C(C)(C)C)cc(c1OCc1cn(CC(=O)Nc3ccc(OC4OC(CO)C(O)C(O)C4O)cc3)nn1)Cc1cc(C(C)(C)C)cc(c1OCc1cn(CC(=O)Nc3ccc(OC4OC(CO)C(O)C(O)C4O)cc3)nn1)C2 (stereo not drawn) [Comp. 27] |  | 0.8 | Hemolysis of red cells is observed |  |  | IC50 (ELLA), in words [2]: sub micromolar range
